In brackets after ≈: the same amount, converted by molar mass.

The test system of one assay is Candida albicans. The assay is described as follows: Antifungal activity against Candida albicans. The format is functional.
Another assay has as its system HCT-8. The experiment in a line: Cytotoxicity against human HCT8 cells. The format is functional.
For a further assay, the system named is P388. The experiment in a line: Cytotoxicity against mouse P388 cells. The assay is classed as functional, cell-based.
Assay [1] in a line: Cytotoxicity against human MDA-MB cells. The format is functional.
In a further assay the test system is A549. The assay is described as follows: Cytotoxicity against human A549 cells. The format is functional.

With `Cc1ccc([C@@H](C)CCCC(C)(C)O)c(O)c1`, in the assay on Candida albicans, the MIC amounted to 250 µg/mL (≈ 1060 µM).
Usually IC50 stands for the concentration at which inhibition is half-maximal. Higher therefore signals lower potency. `CC(C)=CCC[C@H](C)c1ccc(C)cc1O`: the MIC with HCT-8 was 0.1 µg/mL (≈ 0.458 µM); in assay [1] it was 0.1 µg/mL (≈ 0.458 µM); against Candida albicans, 8 µg/mL (≈ 36.6 µM); against A549, 10 µg/mL (≈ 45.8 µM). Moreover, the IC50 in the assay with P388 stood at 7 µg/mL (≈ 32.1 µM).

(Values after ChEMBL document CHEMBL1150733, “(+)-Curcuphenol and (+)-Curcudiol, Sesquiterpene Phenols from Shallow and Deep Water Collections of the Marine Sponge Didiscus flavus” (J Nat Prod, 1987).)
